{"source": "patent US11572590B2", "about": "“Methods for evaluating tumor cell spheroids using 3D microfluidic cell culture device” (Dana-Farber Cancer Institute, Inc., priority 2017, dated 2023)", "assay_in_all_cases": "SelectScreen Kinase Profiling, single point inhibition and IC50 for off-target kinases", "assay_type_in_all_cases": "biochemical", "key": {"off-target kinases [1]": {"target": "off-target kinases (Homo sapiens, UniProt Q14012)", "sequence (Q14012 whole entry)": "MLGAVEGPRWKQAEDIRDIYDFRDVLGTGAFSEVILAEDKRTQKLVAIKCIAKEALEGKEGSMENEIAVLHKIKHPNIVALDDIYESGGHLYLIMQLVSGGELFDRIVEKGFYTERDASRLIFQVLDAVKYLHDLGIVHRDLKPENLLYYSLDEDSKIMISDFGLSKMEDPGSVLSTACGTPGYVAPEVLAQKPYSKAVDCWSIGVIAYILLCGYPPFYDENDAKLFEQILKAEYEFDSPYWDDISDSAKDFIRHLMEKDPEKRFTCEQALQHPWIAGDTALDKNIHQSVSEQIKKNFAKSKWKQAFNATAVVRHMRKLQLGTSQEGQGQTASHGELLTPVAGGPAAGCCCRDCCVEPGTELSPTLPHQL", "conditions": "CAMK1 (CaMK1), Adapta, ATP 10"}, "off-target kinases [2]": {"target": "off-target kinases (Homo sapiens, UniProt P16234, T674I)", "conditions": "PDGFRA T674I, mutant y, ZLYTE, ATP Km app"}, "off-target kinases [3]": {"target": "off-target kinases (Homo sapiens, UniProt P31751)", "sequence (P31751 whole entry)": "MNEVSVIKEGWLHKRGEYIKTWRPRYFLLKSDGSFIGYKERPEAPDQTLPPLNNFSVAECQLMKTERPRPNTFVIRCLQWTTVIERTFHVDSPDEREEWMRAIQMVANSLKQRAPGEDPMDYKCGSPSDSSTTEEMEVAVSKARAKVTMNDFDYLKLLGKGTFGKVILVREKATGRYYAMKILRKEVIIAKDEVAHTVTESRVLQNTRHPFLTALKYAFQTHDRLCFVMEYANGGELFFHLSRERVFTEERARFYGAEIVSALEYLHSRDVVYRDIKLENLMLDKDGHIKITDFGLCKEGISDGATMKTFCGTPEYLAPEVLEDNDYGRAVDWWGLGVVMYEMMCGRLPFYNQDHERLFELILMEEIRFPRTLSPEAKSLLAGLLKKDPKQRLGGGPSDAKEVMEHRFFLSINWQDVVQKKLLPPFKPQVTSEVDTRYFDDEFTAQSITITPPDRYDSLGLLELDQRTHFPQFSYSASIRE", "conditions": "AKT2 (PKB beta), ZLYTE, ATP Km app"}, "off-target kinases [4]": {"target": "off-target kinases (Homo sapiens, UniProt Q13554)", "sequence (Q13554 whole entry)": "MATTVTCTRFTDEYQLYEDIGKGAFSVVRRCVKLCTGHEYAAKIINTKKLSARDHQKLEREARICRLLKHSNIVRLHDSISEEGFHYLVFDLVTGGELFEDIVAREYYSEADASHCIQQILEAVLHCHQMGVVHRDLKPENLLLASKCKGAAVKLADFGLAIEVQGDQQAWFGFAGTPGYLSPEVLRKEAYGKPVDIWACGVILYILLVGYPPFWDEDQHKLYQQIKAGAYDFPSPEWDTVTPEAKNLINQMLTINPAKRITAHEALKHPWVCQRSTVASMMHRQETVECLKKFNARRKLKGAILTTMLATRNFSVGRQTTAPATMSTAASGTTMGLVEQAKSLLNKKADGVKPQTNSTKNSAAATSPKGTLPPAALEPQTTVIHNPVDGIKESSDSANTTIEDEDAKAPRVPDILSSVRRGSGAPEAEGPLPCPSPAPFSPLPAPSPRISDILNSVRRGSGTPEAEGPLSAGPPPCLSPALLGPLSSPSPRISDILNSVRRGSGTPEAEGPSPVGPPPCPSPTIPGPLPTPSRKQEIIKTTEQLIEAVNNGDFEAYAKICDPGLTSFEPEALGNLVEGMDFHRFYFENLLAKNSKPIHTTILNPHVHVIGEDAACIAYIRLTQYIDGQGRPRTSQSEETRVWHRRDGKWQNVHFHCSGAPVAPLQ", "conditions": "CAMK2B (CaMKII beta), ZLYTE, ATP Km app"}, "off-target kinases [5]": {"target": "off-target kinases (Homo sapiens, UniProt P68400)", "sequence (P68400 whole entry)": "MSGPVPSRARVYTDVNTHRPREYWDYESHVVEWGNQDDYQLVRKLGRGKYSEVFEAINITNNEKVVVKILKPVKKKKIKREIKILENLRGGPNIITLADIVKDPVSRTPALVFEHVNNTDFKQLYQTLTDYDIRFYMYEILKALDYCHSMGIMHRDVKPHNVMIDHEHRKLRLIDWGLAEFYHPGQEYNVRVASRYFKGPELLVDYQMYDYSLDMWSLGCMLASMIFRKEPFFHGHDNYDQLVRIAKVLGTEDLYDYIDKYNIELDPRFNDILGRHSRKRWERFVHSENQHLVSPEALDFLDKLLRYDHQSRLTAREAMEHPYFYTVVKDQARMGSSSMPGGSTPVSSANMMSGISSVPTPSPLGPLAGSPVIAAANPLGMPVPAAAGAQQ", "conditions": "CSNK2A1 (CK2 alpha 1), ZLYTE, ATP Km app"}, "off-target kinases [6]": {"target": "off-target kinases (Homo sapiens, UniProt P54646)", "sequence (P54646 whole entry)": "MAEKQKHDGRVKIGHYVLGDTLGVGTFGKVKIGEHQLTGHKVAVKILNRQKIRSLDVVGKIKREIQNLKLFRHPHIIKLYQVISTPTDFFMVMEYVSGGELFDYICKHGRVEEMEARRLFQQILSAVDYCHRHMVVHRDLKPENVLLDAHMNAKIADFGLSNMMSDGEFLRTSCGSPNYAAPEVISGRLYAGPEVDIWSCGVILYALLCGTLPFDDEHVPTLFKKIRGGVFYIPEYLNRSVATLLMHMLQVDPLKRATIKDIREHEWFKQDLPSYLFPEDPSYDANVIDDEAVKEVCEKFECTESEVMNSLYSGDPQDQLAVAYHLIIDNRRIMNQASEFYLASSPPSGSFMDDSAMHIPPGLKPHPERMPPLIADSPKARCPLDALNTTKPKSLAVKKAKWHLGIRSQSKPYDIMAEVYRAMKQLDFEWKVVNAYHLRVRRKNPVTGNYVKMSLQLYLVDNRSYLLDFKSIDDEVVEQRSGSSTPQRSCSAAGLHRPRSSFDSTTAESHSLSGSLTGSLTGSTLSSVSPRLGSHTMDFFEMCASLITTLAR"}, "off-target kinases [7]": {"target": "off-target kinases (Homo sapiens, UniProt Q9BUB5)", "sequence (Q9BUB5 whole entry)": "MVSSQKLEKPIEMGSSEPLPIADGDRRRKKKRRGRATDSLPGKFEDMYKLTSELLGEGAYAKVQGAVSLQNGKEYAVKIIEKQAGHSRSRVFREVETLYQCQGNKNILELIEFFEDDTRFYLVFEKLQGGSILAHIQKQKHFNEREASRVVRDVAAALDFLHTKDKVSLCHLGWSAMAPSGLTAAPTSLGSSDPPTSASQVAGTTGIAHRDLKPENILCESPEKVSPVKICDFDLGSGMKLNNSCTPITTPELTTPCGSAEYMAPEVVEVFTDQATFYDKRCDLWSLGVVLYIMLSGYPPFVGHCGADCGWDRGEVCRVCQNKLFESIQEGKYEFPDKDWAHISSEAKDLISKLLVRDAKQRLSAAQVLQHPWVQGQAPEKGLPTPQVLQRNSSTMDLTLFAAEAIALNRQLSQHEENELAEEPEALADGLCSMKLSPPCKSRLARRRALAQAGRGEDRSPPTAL", "conditions": "MKNK1 (MNK1), ATP Km app, ZLYTE"}, "off-target kinases [8]": {"target": "off-target kinases (Homo sapiens, UniProt Q9Y463)", "sequence (Q9Y463 whole entry)": "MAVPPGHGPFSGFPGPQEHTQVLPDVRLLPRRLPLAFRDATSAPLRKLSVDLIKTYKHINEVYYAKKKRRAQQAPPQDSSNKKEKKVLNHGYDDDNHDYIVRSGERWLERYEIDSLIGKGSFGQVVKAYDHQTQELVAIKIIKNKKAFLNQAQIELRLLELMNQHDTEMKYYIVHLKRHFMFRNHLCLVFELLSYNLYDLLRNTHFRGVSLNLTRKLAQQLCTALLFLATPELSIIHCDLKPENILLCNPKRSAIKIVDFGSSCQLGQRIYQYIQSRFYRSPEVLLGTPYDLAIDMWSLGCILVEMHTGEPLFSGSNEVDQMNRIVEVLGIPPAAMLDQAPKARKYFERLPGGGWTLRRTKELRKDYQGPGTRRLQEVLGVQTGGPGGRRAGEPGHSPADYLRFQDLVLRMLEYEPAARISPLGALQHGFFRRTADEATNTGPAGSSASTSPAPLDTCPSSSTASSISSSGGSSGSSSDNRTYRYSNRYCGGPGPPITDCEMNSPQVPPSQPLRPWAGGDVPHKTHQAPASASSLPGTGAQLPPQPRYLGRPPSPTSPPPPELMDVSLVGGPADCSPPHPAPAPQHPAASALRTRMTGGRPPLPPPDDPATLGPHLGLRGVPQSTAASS", "conditions": "DYRK1B, ZLYTE, ATP Km app"}, "off-target kinases [9]": {"target": "T1, off-target kinases (Homo sapiens, UniProt P46734)", "T1 sequence (P46734 1-347)": "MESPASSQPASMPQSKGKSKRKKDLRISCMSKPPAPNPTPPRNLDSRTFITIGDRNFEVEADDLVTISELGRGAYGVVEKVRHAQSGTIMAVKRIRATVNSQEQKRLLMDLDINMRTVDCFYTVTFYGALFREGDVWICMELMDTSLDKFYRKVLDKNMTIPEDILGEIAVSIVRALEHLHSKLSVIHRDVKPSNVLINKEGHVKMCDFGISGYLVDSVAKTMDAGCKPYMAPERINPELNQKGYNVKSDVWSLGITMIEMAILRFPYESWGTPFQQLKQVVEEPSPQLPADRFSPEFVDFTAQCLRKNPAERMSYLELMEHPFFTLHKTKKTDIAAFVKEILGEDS", "conditions": "MAP2K3 (MEK3), LanthaScreen Binding"}, "off-target kinases [10]": {"target": "off-target kinases (Homo sapiens, UniProt P17252)", "conditions": "PRKCA (PKC alpha), ZLYTE, ATP Km app"}, "off-target kinases [11]": {"target": "off-target kinases (Homo sapiens, UniProt Q9P0L2)", "sequence (Q9P0L2 whole entry)": "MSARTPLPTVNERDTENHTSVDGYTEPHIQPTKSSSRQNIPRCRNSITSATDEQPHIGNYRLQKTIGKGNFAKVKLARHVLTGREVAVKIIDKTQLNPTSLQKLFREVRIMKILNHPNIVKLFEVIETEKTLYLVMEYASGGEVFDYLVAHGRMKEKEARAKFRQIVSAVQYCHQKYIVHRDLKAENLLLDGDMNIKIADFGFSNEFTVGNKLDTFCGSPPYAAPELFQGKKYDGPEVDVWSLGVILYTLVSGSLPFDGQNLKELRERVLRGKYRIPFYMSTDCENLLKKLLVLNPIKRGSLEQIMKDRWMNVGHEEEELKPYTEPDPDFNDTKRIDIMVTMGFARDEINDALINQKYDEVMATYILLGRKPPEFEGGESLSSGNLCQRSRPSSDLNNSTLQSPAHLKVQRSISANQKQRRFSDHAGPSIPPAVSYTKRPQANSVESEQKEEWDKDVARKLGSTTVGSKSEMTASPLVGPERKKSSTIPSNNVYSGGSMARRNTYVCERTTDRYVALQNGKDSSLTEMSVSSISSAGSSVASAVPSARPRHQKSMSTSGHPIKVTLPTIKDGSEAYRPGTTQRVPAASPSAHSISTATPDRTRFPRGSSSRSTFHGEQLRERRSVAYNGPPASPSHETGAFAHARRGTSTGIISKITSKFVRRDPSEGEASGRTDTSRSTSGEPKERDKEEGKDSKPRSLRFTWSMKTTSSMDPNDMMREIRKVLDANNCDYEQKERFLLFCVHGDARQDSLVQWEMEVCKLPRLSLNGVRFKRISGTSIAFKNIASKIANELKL", "conditions": "MARK1 (MARK), ATP Km app, ZLYTE"}}, "note": "Like-named read-outs stand apart in the source and are kept apart here.", "data": [{"smiles": "N#Cc1cc(-c2ncnc(Nc3ccc(N4CCN(C5COC5)CC4)cc3)n2)ccc1OC1CCOCC1", "note": "[Compound 1, 5-(4-((4-(4-(oxetan-3-yl)piperazin-1-yl)phenyl)amino)-1,3,5-triazin-2-yl)-2-((tetrahydro-2H-pyran-4-yl)oxy)benzonitrile]", "values": [{"measurement": "inhibition", "setting": "off-target kinases [1]; read-out: % Inhibition 1", "value": 7, "unit": "%"}, {"measurement": "inhibition", "setting": "off-target kinases [1]; read-out: % Inhibition 2", "value": 8, "unit": "%"}, {"measurement": "inhibition", "setting": "off-target kinases [1]; read-out: % Inhibition Avg", "value": 7, "unit": "%"}, {"measurement": "inhibition", "setting": "off-target kinases [2]; read-out: % Inhibition 1", "value": 40, "unit": "%"}, {"measurement": "inhibition", "setting": "off-target kinases [2]; read-out: % Inhibition 2", "value": 32, "unit": "%"}, {"measurement": "inhibition", "setting": "off-target kinases [2]; read-out: % Inhibition Avg", "value": 36, "unit": "%"}, {"measurement": "inhibition", "setting": "off-target kinases [3]; read-out: % Inhibition 1", "value": 3, "unit": "%"}, {"measurement": "inhibition", "setting": "off-target kinases [3]; read-out: % Inhibition 2", "value": 2, "unit": "%"}, {"measurement": "inhibition", "setting": "off-target kinases [3]; read-out: % Inhibition Avg", "value": 3, "unit": "%"}, {"measurement": "inhibition", "setting": "off-target kinases [4]; read-out: % Inhibition 1", "value": 11, "unit": "%"}, {"measurement": "inhibition", "setting": "off-target kinases [4]; read-out: % Inhibition 2", "value": 8, "unit": "%"}, {"measurement": "inhibition", "setting": "off-target kinases [4]; read-out: % Inhibition Avg", "value": 10, "unit": "%"}, {"measurement": "inhibition", "setting": "off-target kinases [5]; read-out: % Inhibition 1", "value": 13, "unit": "%"}, {"measurement": "inhibition", "setting": "off-target kinases [5]; read-out: % Inhibition 2", "value": 7, "unit": "%"}, {"measurement": "inhibition", "setting": "off-target kinases [5]; read-out: % Inhibition Avg", "value": 10, "unit": "%"}, {"measurement": "inhibition", "setting": "off-target kinases [6]; AMPK (A2/B2/G1), LanthaScreen Binding, read-out: % Inhibition 1", "value": 35, "unit": "%"}, {"measurement": "inhibition", "setting": "off-target kinases [6]; AMPK (A2/B2/G1), LanthaScreen Binding, read-out: % Inhibition 2", "value": 35, "unit": "%"}, {"measurement": "inhibition", "setting": "off-target kinases [6]; AMPK (A2/B2/G1), LanthaScreen Binding, read-out: % Inhibition Avg", "value": 35, "unit": "%"}, {"measurement": "inhibition", "setting": "off-target kinases [6]; AMPK (A2/B2/G2), LanthaScreen Binding, read-out: % Inhibition 1", "value": 44, "unit": "%"}, {"measurement": "inhibition", "setting": "off-target kinases [6]; AMPK (A2/B2/G2), LanthaScreen Binding, read-out: % Inhibition 2", "value": 45, "unit": "%"}, {"measurement": "inhibition", "setting": "off-target kinases [6]; AMPK (A2/B2/G2), LanthaScreen Binding, read-out: % Inhibition Avg", "value": 45, "unit": "%"}, {"measurement": "inhibition", "setting": "off-target kinases [6]; AMPK A2/B1/G1, ATP Km app, ZLYTE, read-out: % Inhibition 1", "value": 47, "unit": "%"}, {"measurement": "inhibition", "setting": "off-target kinases [6]; AMPK A2/B1/G1, ATP Km app, ZLYTE, read-out: % Inhibition 2", "value": 46, "unit": "%"}, {"measurement": "inhibition", "setting": "off-target kinases [6]; AMPK A2/B1/G1, ATP Km app, ZLYTE, read-out: % Inhibition Avg", "value": 46, "unit": "%"}, {"measurement": "inhibition", "setting": "off-target kinases [7]; read-out: % Inhibition 1", "value": 99, "unit": "%"}, {"measurement": "inhibition", "setting": "off-target kinases [7]; read-out: % Inhibition 2", "value": 100, "unit": "%"}, {"measurement": "inhibition", "setting": "off-target kinases [7]; read-out: % Inhibition Avg", "value": 100, "unit": "%"}, {"measurement": "inhibition", "setting": "off-target kinases [8]; read-out: % Inhibition 1", "value": 14, "unit": "%"}, {"measurement": "inhibition", "setting": "off-target kinases [8]; read-out: % Inhibition 2", "value": 9, "unit": "%"}, {"measurement": "inhibition", "setting": "off-target kinases [8]; read-out: % Inhibition Avg", "value": 11, "unit": "%"}, {"measurement": "inhibition", "setting": "off-target kinases [9]; read-out: % Inhibition 1", "value": 5, "unit": "%"}, {"measurement": "inhibition", "setting": "off-target kinases [9]; read-out: % Inhibition 2", "value": 8, "unit": "%"}, {"measurement": "inhibition", "setting": "off-target kinases [9]; read-out: % Inhibition Avg", "value": 7, "unit": "%"}, {"measurement": "inhibition", "setting": "off-target kinases [10]; read-out: % Inhibition 1", "value": 0, "unit": "%"}, {"measurement": "inhibition", "setting": "off-target kinases [10]; read-out: % Inhibition 2", "value": -5, "unit": "%"}, {"measurement": "inhibition", "setting": "off-target kinases [10]; read-out: % Inhibition Avg", "value": -2, "unit": "%"}, {"measurement": "inhibition", "setting": "off-target kinases [11]; read-out: % Inhibition 1", "value": 85, "unit": "%"}, {"measurement": "inhibition", "setting": "off-target kinases [11]; read-out: % Inhibition 2", "value": 87, "unit": "%"}, {"measurement": "inhibition", "setting": "off-target kinases [11]; read-out: % Inhibition Avg", "value": 86, "unit": "%"}]}]}
